Experimental data published in patent publication US8507674B2, “Quorum sensing inhibitor” (The University of Tokyo, priority 2007, dated 2013).

Tests used:
Burkholderia glumae [1] = assay: Test Example 2: number of microorganisms in culture solution (colony count); format: cell-based; conditions: final concentration 100 μM, after 36 hours of cultivation, FIG. 1
Protocol: Burkholderia glumae was inoculated into an LB culture medium, and cultured at 37° C. overnight. The thus-obtained culture solution was subjected to bacterial collection using a centrifuge, washed with an LB culture medium twice using a fresh LB culture medium each time. To the bacterial cell a fresh LB culture medium was added to prepare a culture suspension of about 3.0×10^5 cfu/mL. Thereafter, each of Compound (1), Compound (2), Compound (3), Compound (4), Compound (5), Compound (8) and Compound (9) produced in Production Examples 1-5 were added to the culture suspension in such a manner that their final concentration became 100 μM, followed by shake culturing for 36 hours. The number of microorganisms in the culture solution 24 hours and 36 hours after the initiation of the culturing were obtained by the following procedure. Specifically, a portion of the culture solution was removed and diluted 1,000-fold, and then seeded to an LB culture medium agar plate. The number of colonies were counted to obtain the number of microorganisms.
The same experiments were conducted, as comparative tests, using Comparative Compounds (1)-(3), which were produced in Reference Examples 1-3 and the below-explained compound (Comparative Compound (4)), which is disclosed in Patent Document 1, thereby obtaining the number of microorganisms.

[2] = test system: (gfp expression PAO1-strain); assay: Test Example 7: biofilm formation inhibition in flow cell system; format: cell-based, Burkholderia aeruginosa; conditions: test liquid at 200 μL per minute, observed up to 84 hours by confocal microscope, FIG. 5
Protocol: Using the flow cell system shown in FIG. 4, the […] aeruginosa biofilm formation inhibition effect of Compound (2), which was produced using Production Example 2, was evaluated.
A culture medium bottle (1), peristaltic pump (2), glass cell (4) and waste fluid bottle (5) are connected via a silicon tube (6) so that a culture medium (9) is supplied to the glass cell (4) from the culture medium bottle (1) using the peristaltic pump (2). The system includes an air removal section (3) between the peristaltic pump (2) and a turncock (7a) for removing entrained air. All components in the flow cell system were sterilized using gamma rays or an autoclave.
As described later, the inhibitory effect against biofilm formation of each of the compounds can be examined in the following manner. Bacteria are cultured in a glass cell (4) to grow a biofilm on the inner wall of the cell, and a test liquid containing one of the compounds is applied to the biofilm. Then the state of the biofilm is observed to evaluate the inhibitory effect against biofilm formation of the compound using a spectral confocal and multiphoton microscope (Leica TCS SP2: produced by Leica). […]

[3] = test system: Porphyromonas gingivalis 381-strain; assay: Test Example 8: biofilm formation inhibition on hydroxyapatite disks in flow cell system; format: cell-based
Protocol: Using the flow cell system shown in FIG. 4, the Porphyromonas gingivalis biofilm formation inhibition effect of Compound (2), which was produced in Production Example 2, was evaluated.
Bacteria: Periodontitis pathogenic bacteria Porphyromonas gingivalis 381-strain (clinical strain) were used.
Culture Medium: A GAM culture medium containing […] and 1 μg/L menadione was used.
Bacterial Suspension The 381-strain was inoculated into the GAM culture medium, and cultivated until the stationary phase (OD550=1.8). Then the culture medium was diluted 20-fold by the GAM culture medium described above.
Test liquid: The test liquid was prepared by dissolving Compound (2) into DMSO to obtain 100 μM of DMSO solution of Compound (2). […]
After the cultivation, the HA disks were dipped in 300 μL of sterile distilled water, and treated by supersonic waves for 30 minutes at 4° C. […] Then, the turbidity of 10 μL of the suspension liquid was measured with an absorptiometer (C07500 calorimeter, produced by Funakoshi) (measurement wavelength=550 nm).
A mean OD was found based on the resulting OD values, excluding the minimum and maximum values. Likewise, the turbidity of the control test liquid was obtained and determined as a control OD value, and then the control mean OD value was found in the same manner. […]

Burkholderia glumae [4] = assay: Test Example 9: amount of toxoflavin produced in culture solution, with comparative compound; format: cell-based; conditions: 0, 20, 40, 60, 80 or 100 μM, shake culturing 20 hours, FIG. 6
Protocol: Burkholderia glumae was inoculated into an LB culture medium (produced by BD (Difco LB Broth: containing tryptone (10.0 g), yeast extract (5.0 g), and sodium chloride (10.0 g)), and cultured at 37° C. overnight. The thus-obtained culture solution was subjected to bacterial collection using a centrifuge, and washed with an LB culture medium twice using a fresh LB culture medium each time. To the bacterial cell a fresh LB culture medium was added, and then Compound (1) produced in Production Example 1 was added thereto in such a manner that its final concentration became a predetermined value (i.e., 0, 20, 40, 60, 80 or 100 μM), followed by shake culturing for 20 hours. The amount of toxoflavin produced by the bacterial cell in the culture solution was obtained by the following procedure.
Each culture solution was filtered by a 0.22-μm membrane filter, and 1 mL of the filtrate was isolated. One mL of chloroform was added to the filtrate, followed by extraction. The thus-obtained chloroform layer was concentrated under reduced pressure, and an 80% (V/V) an aqueous methanol solution was added to and dissolved in the residue. The absorbance (at 260 nm) of the solution was measured, and the toxin doses were calculated from the calibration curve, which was obtained using chemically synthesized standard toxin. […]

`CCCCc1cc(=O)n2cccc(O)c2n1` [Compound (9), 9-hydroxy-2-n-butyl-4H-pyrid[1,2-a]pyrimidin-4-one] was tested. Which “control activity against Burkholderia glumae (number of microorganisms)” value (Burkholderia glumae [1]) did it give?
The value was “can kill almost all Burkholderia glumae”.

For `CCc1cc(=O)n2cccc(O)c2n1` [Compound (8), 9-hydroxy-2-ethyl-4H-pyrid[1,2-a]pyrimidin-4-one], which “control activity against Burkholderia glumae (number of microorganisms)” value (Burkholderia glumae [1]) is on record?
Its value is “can kill almost all Burkholderia glumae”.

Which results are given for `CCCCCc1cc(=O)n2cccc(O)c2n1` [Compound (2), 9-hydroxy-2-n-pentyl-4H-pyrid[1,2-a]pyrimidin-4-one]?
biofilm formation on inner wall of glass cell [2]: biofilm formation was not observed; Mean OD Value ([3]; 100 μM, 14 days circulation, turbidity of biofilm suspension at 550 nm): 0.041; inhibition at 100 µM ([3]; Porphyromonas gingivalis, 381STRAIN, 336 h, read-out: Inhibition Rate (%) (biofilm formation inhibition rate)): 56.4%

`CCCCCCCCCC(=O)CC(=O)Nc1ccccc1O` [Comparative Compound (5), reference compound] was tested. Which “toxin doses produced by bacteria (toxoflavin)” value (Burkholderia glumae [4]) did it give?
The value was “almost no change”.
